{
  "source": "patent US8138191B2",
  "about": "“Inhibitor compounds and cancer treatment methods” (Critical Outcome Technologies Inc., priority 2007, dated 2012)",
  "key": {"[1]": {"molecular_target": "CYP2C9 (Homo sapiens, UniProt P11712)", "sequence (P11712 whole entry)": "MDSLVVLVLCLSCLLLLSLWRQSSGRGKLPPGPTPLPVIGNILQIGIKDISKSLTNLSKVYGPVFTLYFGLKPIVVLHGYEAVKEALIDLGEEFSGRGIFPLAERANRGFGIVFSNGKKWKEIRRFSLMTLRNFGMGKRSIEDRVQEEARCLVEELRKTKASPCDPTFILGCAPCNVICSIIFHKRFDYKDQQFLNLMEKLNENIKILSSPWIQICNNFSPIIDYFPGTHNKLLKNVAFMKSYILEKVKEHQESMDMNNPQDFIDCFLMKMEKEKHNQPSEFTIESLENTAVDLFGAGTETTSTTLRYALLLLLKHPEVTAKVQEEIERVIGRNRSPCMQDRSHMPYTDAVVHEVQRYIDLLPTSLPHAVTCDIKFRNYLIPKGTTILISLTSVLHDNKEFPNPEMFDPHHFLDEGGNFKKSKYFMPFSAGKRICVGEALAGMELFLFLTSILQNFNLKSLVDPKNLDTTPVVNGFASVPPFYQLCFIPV", "assay": "in vitro", "settings": "both"}, "[2]": {"system": "SHP77 cells", "assay": "AKT/AKT2 siRNA then COTI-2, cell viability by MTT assay, SHP77", "format": "cell-based, human", "settings": "SHP 77", "procedure": "Cell cultures were maintained under regular tissue culture conditions and passaged 1-2 times a week as recommended by ATCC. For siRNA experiments the manufacturer's conditions for growth and transfection were followed. All siRNA reagents for AKT and AKT2 transfections were obtained from Cell Signaling.\nCells were treated for 48 h with 0-100 ng of AKT or AKT2 siRNA before incubation with COTI-2 at various concentrations (0-500 nM). Following incubation for 48 h, cell viability was determined by MTT assay."}, "[3]": {"assay": "In vivo pharmacokinetics in rats, IV dosing", "settings": "IV", "excerpt": "Pharmacokinetic studies in animal models provide valuable information that enables prediction of metabolism in humans. There are a large variety of animal models that allow for the pharmacokinetic evaluation of compounds by providing information on serum, plasma, and tissue levels. […] As a result, it is important to keep this phenomenon in mind during extrapolations from animal to human metabolism. An initial pharmacokinetic assessment of COTI-2, administered both intravenously and orally, in its parent formulation and as both an oxalate and tartrate salt were evaluated in rats.\nA single oral or IV dose of the COTI-2 free-base or the aforementioned salt forms was administered to groups of male and female rats and blood samples collected and processed at several time-points post-treatment."}, "[4]": {"system": "AN3-CA human endometrial tumor xenograft", "settings": "for Maximum weight loss (%) (Day #): Day 21; for CS (Complete Shrinkage) / Deaths: N 10; for Mean days of Survival (Day ± SEM): end point of 2000 mg", "procedure": "Female athymic nude mice (CrTac:NCR-Foxn1^nu) were supplied by Taconic (Germantown, N.Y.).\nThe dosing schedule for COTI-2 and the vehicle control was three times weekly until study end. […] When the mean tumor weight of each mouse reached an approximate end-point of 2000 mg, mice were sacrificed with regulated CO2.\nThe mean tumor shrinkage of each group was calculated and reported."}, "[5]": {"assay": "Metabolic Stability (liver microsomes, monkey, Cynomolgus)", "format": "in vitro ADME", "settings": "1.0E−06 M, 60 min", "procedure": "Metabolic stability was determined in human (mixed gender and pool of 50) monkey (male Cynomolgus, pool of 6 or more), dog male, beagle, pool of 4 or more) and rat (male Sprague-Dawley, pool of 100 or more) liver microsomes. […] Four reference substrates (1 μM) were tested simultaneously with COTI-2. […] Peak areas corresponding to COTI-2 were recorded by HPLC-MS/MS. Metabolic stability, expressed as percent of COTI-2 remaining, was calculated by comparing the peak area of COTI-2 at 60 min to time zero."}, "[6]": {"assay": "in vitro", "settings": "human", "procedure": "(§1) TC7 cells were seeded at 1×10^5 cells/cm^2 on porous polycarbonate membrane in 96-well Multiscreen™ plates (Millipore). Cells were fed every 2 to 3 days and the day before the permeability assay. Permeability assays are performed with the cells at days 13-25 post-seeding. The assay directions included apical to basolateral (A-B) and basolateral to apical (B-A). The working solution for COTI-2 was prepared at 10 μM in HBSS-MES (5 mM), pH 6.5, or HBSS-HEPES (5 mM), pH 7.4, from a 1 mM DMSO stock solution. The working solution was then centrifuged and the supernatant was added to the apical or basolateral side with a final DMSO concentration of 1%. The assay was incubated for 60 or 40 min with gentle shaking at 37° C. The sampling scheme consisted of donor time zero, donor time 60 or 40 min, and receiver time 60 or 40 min. Samples were analyzed via (RP)HPLC-MS/MS using selected reaction monitoring (SRM). […] The cell monolayer integrity was confirmed by fluorescein permeability assessment (in the A-B direction at pH 7.4 on both sides with 1 h incubation) after the permeability assay with COTI-2. The cell monolayer that has a fluorescein permeability of less than 0.5×10^−6 cm/s was considered intact. The apparent permeability coefficient (Papp) of COTI-2 in the […] and the percent recovery of the compounds were calculated."}, "[7]": {"system": "TC7 (human intestinal epithelial cells)", "assay": "in vitro", "procedure": "as §1"}, "[8]": {"system": "H226", "assay": "in vitro IC50 against cancer cell lines, H226", "format": "cell-based", "settings": "Homo sapiens, NCI-H226, 72 h; H226, NSCLC, 3 days", "procedure": "Briefly, cells were plated in plastic tissue culture plates and grown under standard conditions for each cell line, in carbon dioxide/oxygen atmosphere in plastic tissue culture plates, in the presence of COTI-2 or COTI-219 compounds at 35° C. for 3 days. Control cultures were treated with vehicle minus compound. Cells were counted after 3 days in culture and at a cell density of no more than 80%. The following cell lines, obtained from the National Cancer Institute, were tested: human SCLC cell lines DMS153, DMS114, SHP77; human NSCLC cell lines H226, A460, A560; human breast cancer cell lines T47D, MCF7; human colon cancer cell line HT29; and, human Leukemia cell lines K562, HL60."}, "[9]": {"settings": "COTI-2 12.5 mg/kg IV 3X Weekly to end"}, "[10]": {"settings": "COTI-2 50.0 mg/kg IV 3X Weekly to end"}, "[11]": {"settings": "Caco-2, pH 7.4, Permeability Mean"}},
  "note": "Read-outs that look alike come from different tables or passages of the source.",
  "data": [
    {"smiles": "S=C(N/N=C1/CCCc2cccnc21)N1CCN(c2ccccn2)CC1", "note": "[COTI-2]", "values": [
      {"measurement": "inhibition at 15 min, 10 µM", "setting": "[1]; human liver microsomes, pH 7.4, probe diclofenac (10 µM)", "value": 2, "unit": "%"},
      {"measurement": "inhibition at 15 min, 10 µM", "setting": "[1]; liver microsomes, pH 7.4, probe diclofenac", "value": "< 50", "unit": "%"},
      {"measurement": "cell death with total AKT or AKT2 siRNA, presence vs absence of COTI-2", "setting": "[2]", "value": "no significant difference in cell death"},
      {"measurement": "clearance (CL) from plasma, fold higher than the oxalate formulation", "setting": "[3]", "value": "approximately 1.4 fold"},
      {"measurement": "clearance (CL) from plasma, fold higher than the tartrate formulation", "setting": "[3]", "value": "~2.3", "unit": "fold"},
      {"measurement": "Day 13 Mean tumor weight", "setting": "[4]; [9]", "value": "1,828.9 ± 265.8 mg"},
      {"measurement": "Maximum weight loss (%) (Day #)", "setting": "[4]; [9]", "value": "8.2% (Day 21)"},
      {"measurement": "CS (Complete Shrinkage)", "setting": "[4]; [9]", "value": 0},
      {"measurement": "Deaths", "setting": "[4]; [9]", "value": 0},
      {"measurement": "Mean days of Survival (Day ± SEM)", "setting": "[4]; [9]", "value": "16.7 ± 0.8", "unit": "days"},
      {"measurement": "Day 13 Mean tumor weight", "setting": "[4]; [10]", "value": "1,542.7 ± 217.2 mg"},
      {"measurement": "Day 13 TGI", "setting": "[4]; [10]", "value": 7.8, "unit": "%"},
      {"measurement": "Maximum weight loss (%) (Day #)", "setting": "[4]; [10]", "value": "5.4% (Day 21)"},
      {"measurement": "CS (Complete Shrinkage)", "setting": "[4]; [10]", "value": 0},
      {"measurement": "Deaths", "setting": "[4]; [10]", "value": 1},
      {"measurement": "Mean days of Survival (Day ± SEM)", "setting": "[4]; [10]", "value": "17.2 ± 0.7", "unit": "days"},
      {"measurement": "Mean days of Survival (Day ± SEM)", "setting": "[4]; COTI-2 […] IV 3X Weekly to end", "value": "15.8 ± 0.9", "unit": "days"},
      {"measurement": "toxicity observations", "setting": "[4]; mouse, in vivo, 50 mg/kg", "value": "lethargy and hypoactivity"},
      {"measurement": "tumor weights or survival compared to control", "setting": "[4]; single agent, IV three times weekly", "value": "did not show any statistical differences in tumor weights or survival"},
      {"measurement": "Mean Parent Remaining", "setting": "[5]", "value": 2, "unit": "%"},
      {"measurement": "efflux ratio at 10 µM", "setting": "[6]; Caco-2", "value": "~4.5"},
      {"measurement": "Papp A→B at 10 µM", "setting": "[6]; Caco-2, A-B permeability (Papp)", "value": "< 0.3", "unit": "×10⁻⁶ cm/s"},
      {"measurement": "recovery at 10 µM", "setting": "[6]; Caco-2, mean recovery", "value": 22, "unit": "%"},
      {"measurement": "Papp A→B at 10 µM", "setting": "[6]; [11]", "value": "< 0.3", "unit": "×10⁻⁶ cm/s"},
      {"measurement": "Papp B→A at 10 µM", "setting": "[6]; [11]", "value": 1.4, "unit": "×10⁻⁶ cm/s"},
      {"measurement": "Pgp substrate assessment", "setting": "[7]; Caco-2", "value": "not a substrate of Pgp"},
      {"measurement": "Flags", "setting": "[7]; Caco-2, pH 7.4", "value": "BLQ"},
      {"measurement": "IC50", "setting": "[8]", "value": 15, "unit": "µM"}
    ]}
  ]
}
